Values joined by “and” are separate entries in the source; they are usually repeats but may differ in a detail not shown here. Equal entries are not always repeated.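 Assay format: 96-well plates, 48-hour exposure. Abbreviation: GI50, concentration required for 50% inhibition of growth. TGI marks complete inhibition of growth.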
Assays:
Experiment in all cases: NCI-60 cell line screen, 48 h
A549 NSCLC = system: A549 NSCLC
BT-549 breast = system: BT-549 breast
SR leukemia = system: SR leukemia

N#CC(C#N)N=Nc1ccc(Br)cc1
GI50 (A549 NSCLC): 47.9 µM | TGI (A549 NSCLC): > 100 µM | GI50 (BT-549 breast): 4.18 µM | TGI (BT-549 breast): 31.5 µM | GI50 (SR leukemia): 3.22 µM | TGI (SR leukemia): > 49.8 µM

Nc1ncnc2c1c(-c1cccc(OCc3ccccc3)c1)cn2C1CC(CN2CCC2)C1 (stereo not given)
GI50 (A549 NSCLC): 1.01 µM and 2.91 µM | TGI (A549 NSCLC): 7.55 µM and > 10 µM | GI50 (BT-549 breast): 2.57 µM and 5.84 µM | TGI (BT-549 breast): 6.91 µM and > 10 µM | GI50 (SR leukemia): 2.22 µM and 1.69 µM | TGI (SR leukemia): 6.08 µM and 4.18 µM

O=[N+]([O-])/C=C/c1cc2ccccc2[nH]1
TGI (A549 NSCLC): 42.7 µM | TGI (BT-549 breast): 29.5 µM | TGI (SR leukemia): 26.8 µM

O=C(O)CCC/C=C\C[C@H]1C=CC(=O)/C1=C/C[C@@H](O)CCc1cccc(C(F)(F)F)c1
GI50 (A549 NSCLC): 3.2 µM | TGI (A549 NSCLC): 9.76 µM | GI50 (BT-549 breast): 2.83 µM | TGI (BT-549 breast): 11.3 µM | GI50 (SR leukemia): 0.604 µM | TGI (SR leukemia): 7.22 µM

COc1ccc(-c2nc(C(=O)c3ccccc3)n(CC(=O)c3ccccc3)c2-c2ccc(OC)cc2)cc1
GI50 (A549 NSCLC): > 100 µM | TGI (A549 NSCLC): > 100 µM | GI50 (BT-549 breast): > 100 µM | TGI (BT-549 breast): > 100 µM | GI50 (SR leukemia): > 100 µM | TGI (SR leukemia): > 100 µM

O=C(Nc1ccccc1O)c1ccc(CNc2ccnc(C(F)(F)F)c2)cc1
GI50 (A549 NSCLC): 12 µM | TGI (A549 NSCLC): > 100 µM | GI50 (BT-549 breast): 3.43 µM | TGI (BT-549 breast): 50 µM | GI50 (SR leukemia): 2 µM | TGI (SR leukemia): > 100 µM

CC(=O)O[C@@H]1[C@@H](O)C2=C3[C@]4(C)[C@@H]1C(C)(C)C(=O)C[C@@H]4[C@]3(O)[C@H](OC(C)=O)[C@@]1(C[C@@H]1C)C2=O
TGI (A549 NSCLC): 68.4 µM | TGI (BT-549 breast): 37 µM

COC(=O)Nc1nc2ccc(C(=O)c3ccc(N(C)C4COC4)cc3)cc2[nH]1
GI50 (A549 NSCLC): 0.655 µM | TGI (A549 NSCLC): > 100 µM | GI50 (BT-549 breast): 2.08 µM | TGI (BT-549 breast): > 100 µM | GI50 (SR leukemia): 0.188 µM | TGI (SR leukemia): > 100 µM

Cc1cc2cn3c4ccc(O)cc4[nH]c(=O)c3c2cc1C
GI50 (A549 NSCLC): 0.0308 µM | TGI (A549 NSCLC): 1.04 µM | GI50 (SR leukemia): 0.0342 µM | TGI (SR leukemia): 0.415 µM

CCn1cc(-c2ccnc3[nH]ccc23)c(-c2cccc(NC(=O)Nc3ccc(OCc4ccccc4)cc3)c2)n1
GI50 (A549 NSCLC): 2.85 µM | TGI (A549 NSCLC): > 25 µM | GI50 (BT-549 breast): > 21.9 µM | TGI (BT-549 breast): > 25 µM | GI50 (SR leukemia): 7.25 µM | TGI (SR leukemia): > 25 µM

O=C(O)c1cc2ccccc2oc1=O
TGI (A549 NSCLC): > 100 µM | TGI (BT-549 breast): > 100 µM | TGI (SR leukemia): > 100 µM

CCCCCCCCCc1cc[n+](CC(=O)c2ccc([N+](=O)[O-])cc2)cc1
GI50 (A549 NSCLC): 1.64 µM | TGI (A549 NSCLC): 3.13 µM | GI50 (BT-549 breast): 1.27 µM | TGI (BT-549 breast): 2.72 µM | GI50 (SR leukemia): 0.612 µM | TGI (SR leukemia): 4.48 µM

O=C(/C=C/C=C/c1c(C2CC2)nc2ccccc2c1-c1ccc(F)cc1)c1cccs1
GI50 (A549 NSCLC): 3.72 µM | TGI (A549 NSCLC): > 100 µM | GI50 (BT-549 breast): 1.59 µM | TGI (BT-549 breast): 5.07 µM

CN1C(=O)[C@@H](NC(=O)[C@H](CCC(F)(F)F)[C@H](CCC(F)(F)F)C(N)=O)N=C(c2ccccc2)c2ccccc21
GI50 (A549 NSCLC): 66.7 µM | TGI (A549 NSCLC): > 100 µM | GI50 (BT-549 breast): 88.8 µM | TGI (BT-549 breast): > 100 µM | GI50 (SR leukemia): 28.4 µM | TGI (SR leukemia): > 100 µM

Clc1ccc(C2=Nn3c(nnc3-c3cc(Cl)cc(Cl)c3Cl)SC2)cc1
GI50 (A549 NSCLC): 56.5 µM | TGI (A549 NSCLC): > 100 µM | GI50 (BT-549 breast): 17.6 µM | TGI (BT-549 breast): 47.7 µM | GI50 (SR leukemia): 3.1 µM | TGI (SR leukemia): 7.34 µM

O=c1c(O)cccc2cc(O)c(O)c(O)c12
GI50 (A549 NSCLC): > 100 µM | TGI (A549 NSCLC): > 100 µM | GI50 (SR leukemia): 3.76 µM | TGI (SR leukemia): > 100 µM

N#CSc1c[nH]c2ccc(/C=C/C(=O)/C=C(/C=C/c3ccc4[nH]cc(SC#N)c4c3)OB(F)F)cc12
GI50 (A549 NSCLC): 3.31 µM | TGI (A549 NSCLC): 17.6 µM | GI50 (BT-549 breast): 0.835 µM | TGI (BT-549 breast): 3.43 µM | GI50 (SR leukemia): 0.128 µM

CCN(CC)c1ccc2c(c1)Oc1nc(N)c(C#N)c(N)c1C2Sc1ccc(OC)cc1 (stereo not given)
GI50 (A549 NSCLC): 1.99 µM | TGI (A549 NSCLC): 3.59 µM | GI50 (BT-549 breast): 1.53 µM | TGI (BT-549 breast): 2.95 µM | GI50 (SR leukemia): 1.67 µM | TGI (SR leukemia): 4.78 µM

OC(COc1ccc(F)cc1)Cn1cnc2c(Cl)ncnc21 (stereo not given)
GI50 (A549 NSCLC): > 100 µM | TGI (A549 NSCLC): > 100 µM | GI50 (BT-549 breast): > 100 µM | TGI (BT-549 breast): > 100 µM

COC1=CC(=O)C(OC)=C(OC)C1=O
GI50 (A549 NSCLC): 49.5 µM | TGI (A549 NSCLC): > 100 µM | GI50 (BT-549 breast): 16.7 µM | TGI (BT-549 breast): 30.4 µM | GI50 (SR leukemia): 2.71 µM | TGI (SR leukemia): 9.04 µM

CC(C)CC(=O)Nc1n[nH]c2c1CN(C(=O)C1CCN(C)CC1)C2(C)C
GI50 (A549 NSCLC): 1.15 µM | TGI (A549 NSCLC): > 10 µM | GI50 (BT-549 breast): 3.86 µM | TGI (BT-549 breast): > 10 µM | GI50 (SR leukemia): 0.135 µM | TGI (SR leukemia): 2.59 µM

Nc1nc2cc3ccc(C4CC(O)C(CO)O4)cc3cc2c(=O)[nH]1 (stereo not given)
GI50 (A549 NSCLC): > 100 µM | TGI (A549 NSCLC): > 100 µM | GI50 (BT-549 breast): > 100 µM | TGI (BT-549 breast): > 100 µM

O=C(O)c1cc2ccccc2c(N=Nc2cc(C(F)(F)F)ccc2Cl)c1O
TGI (A549 NSCLC): > 100 µM | TGI (SR leukemia): > 100 µM

CN(C)c1ncc(-c2ccc(C(F)(F)F)cc2)c(NC2CCCCCC2)n1
GI50 (A549 NSCLC): 18.2 µM | TGI (A549 NSCLC): 57.1 µM | GI50 (BT-549 breast): 20.4 µM | TGI (BT-549 breast): 44.4 µM

COC(=O)c1c(O)c([N+](=O)[O-])cc2c1c1c(n2Cc2ccccc2)C(=O)c2ccccc2C1=O
GI50 (A549 NSCLC): 20.4 µM | TGI (A549 NSCLC): > 100 µM | GI50 (BT-549 breast): 5.9 µM | TGI (BT-549 breast): 51.5 µM

COC1=CC23CCCN2CCc2cc4c(cc2C3C1O)OCO4 (stereo not given)
TGI (A549 NSCLC): > 100 µM | TGI (BT-549 breast): > 100 µM

CCN1C2=NCCN2S(=O)(=O)c2ccccc21
TGI (A549 NSCLC): > 100 µM | TGI (BT-549 breast): > 100 µM

— PubChem BioAssay (NCI)
